The test system of data set [1] is MCF7 (hormone-dependent breast carcinoma cell line). The data set can be described thus: in vitro neutral red cytotoxicity assay, MCF7. The conditions noted are these: Homo sapiens, MCF7, read-out: Cytotoxic activity IC50, MCF7.
From the text: (§1) The in vitro cytotoxic activity was studied by the neutral red cytotoxicity assay [5]. KB (epidermoid carcinoma cell line), MCF7 (hormone-dependent breast carcinoma cell line), A549 (lung carcinoma cell line), CaSki (cervical carcinoma cell line), HCT116 (colon carcinoma cell line), HT29 (colon carcinoma cell line) and non-human fibroblast cell line (MRC 5) were purchased from the American Tissue Culture Collection (ATCC).
The subject of data set [2] is CaSki (cervical carcinoma cell line). The data set can be described thus: in vitro neutral red cytotoxicity assay, CaSki. The conditions noted are these: Homo sapiens, Ca-Ski, read-out: Cytotoxic activity IC50, CaSki.
From the text: as §1
Data set [3] relates to HCT116 (colon carcinoma cell line). The data set is described as follows: in vitro neutral red cytotoxicity assay, HCT116. The conditions noted are these: Homo sapiens, HCT-116, read-out: Cytotoxic activity IC50, HCT116.
From the text: as §1
Data set [4] relates to HT29 (colon carcinoma cell line). The data set can be described thus: in vitro neutral red cytotoxicity assay, HT29. The conditions noted are these: Homo sapiens, HT-29, HT29 cells, averaged from three experiments, read-out: Cytotoxic activity IC50, HT29. The format is cell-based.
From the text: as §1
A short description of data set [5]: in vitro neutral red cytotoxicity assay, MRC5. The conditions noted are these: human, MRC5 fibroblast cells (normal, non-cancer).
From the text: as §1
In data set [6] the test system is A549 (lung carcinoma cell line). The data set can be described thus: in vitro neutral red cytotoxicity assay, A549. The class given is cell-based. The conditions noted are these: Homo sapiens, A549 cells, averaged from three experiments, read-out: Cytotoxic activity IC50, A549.
From the text: as §1
Data set [7] relates to KB (epidermoid carcinoma cell line). The data set can be described thus: in vitro neutral red cytotoxicity assay, KB. The conditions noted are these: Homo sapiens, read-out: Cytotoxic activity IC50, KB.
From the text: as §1
The test system is the same in data set [8].
From the text: as §1
The subject of data set [9] is CaSki (cervical carcinoma cell line).
From the text: as §1
Data set [10] concerns MRC5 fibroblast cell line (non-cancer).
From the text: as §1
The test system of data set [11] is MCF7 (hormone-dependent breast carcinoma cell line).
From the text: as §1
Data set [12] deals with HCT116 (colon carcinoma cell line).
From the text: as §1

Converted amounts (≈) assume the structure as drawn. Bounds are passed on as bounds.

Regarding `COc1cccc2c1C(=O)c1c(O)c3c(c(O)c1C2=O)C[C@@](O)(C(=O)CO)C[C@@H]3O[C@H]1C[C@H](N)[C@H](O)[C@H](C)O1` [Doxorubicin, reference compound], the 50% inhibitory concentration (IC50) in data set [1] was 0.05 ± 0.01 µg/mL (≈ 0.092 µM); in data set [2], 0.18 ± 0.06 µg/mL (≈ 0.331 µM); in data set [3], 0.24 ± 0.04 µg/mL (≈ 0.442 µM); in data set [4], 0.33 ± 0.03 µg/mL (≈ 0.607 µM); in data set [5], 0.4 ± 0.03 µg/mL (≈ 0.736 µM); in data set [6], 0.58 ± 0.01 µg/mL (≈ 1.07 µM).

Take `COc1cc(O)c(C(=O)/C=C/c2ccccc2)c(OC)c1` [Flavokawin B (1), flavokawin B]: the IC50 in data set [1] amounted to 49.3 ± 1.8 µg/mL (≈ 173 µM); in [2], 31.1 ± 1.3 µg/mL (≈ 109 µM); in data set [3], 6.4 ± 0.2 µg/mL (≈ 22.5 µM); in [5], 17.2 ± 0.5 µg/mL (≈ 60.5 µM); in data set [7] it was 5.7 ± 0.4 µg/mL (≈ 20 µM).

Take `COc1cc(O)c(C(=O)/C=C/c2ccccc2)c(O)c1` [Pinostrobin chalcone (3), pinostrobin chalcone]: the IC50 turned out to be 7.3 ± 0.6 µg/mL (≈ 27 µM) in [1]; 7.7 ± 0.2 µg/mL (≈ 28.5 µM) in data set [2]; 54.1 ± 4.6 µg/mL (≈ 200 µM) in [3]; 7.9 ± 0.8 µg/mL (≈ 29.2 µM) in [5]; 6.2 ± 0.2 µg/mL (≈ 22.9 µM) in [7].

For alpinetin [Alpinetin (4)], in data set [8], the “Cytotoxic activity IC50, KB” value is over 100 µg/mL. For the same compound, the “Cytotoxic activity IC50, CaSki” value in [9] is recorded as over 100 µg/mL. Further, the “Cytotoxic activity IC50, MRC5” value in data set [10] is listed as over 100 µg/mL. Moreover, the “Cytotoxic activity IC50, MCF7” value in data set [11] is recorded as over 100 µg/mL. For the same compound, the “Cytotoxic activity IC50, HCT116” value in data set [12] worked out at 39.6 ± 2.0 µg/mL.

In general, IC50 refers to the concentration that gives 50% inhibition.

The values are drawn from PMC6259141, “Phytochemical and Cytotoxic Investigations of Alpinia mutica Rhizomes” (Molecules, 2011).
